# Measured values from ChEMBL document CHEMBL1150976, “The selectivity of protein kinase inhibitors: a further update” (Biochem J, 2007).
# How the values were obtained:
# [1] = target: Serine/threonine-protein kinase Nek6 (Homo sapiens) (UniProt Q9HC98); assay: Percentage NEK6 activity remaining in the presence of 0.01uM inhibitor
# [2] = target: Mitogen-activated protein kinase 11 (Homo sapiens) (UniProt Q15759); assay: Percentage p38beta activity remaining in the presence of 0.01uM inhibitor
# [3] = target: Dual specificity tyrosine-phosphorylation-regulated kinase 1A (Homo sapiens) (UniProt Q13627); assay: Percentage DYRK1A activity remaining in the presence of 0.01uM inhibitor
# [4] = target: Ribosomal protein S6 kinase beta-1 (Homo sapiens, UniProt P23443); assay: Percentage S6K1 activity remaining in the presence of 0.01uM inhibitor
# [5] = target: Casein kinase II (Homo sapiens) (UniProt P67870+P68400+P19784); assay: Percentage CK2 activity remaining in the presence of 0.01uM inhibitor; format: protein-complex assay
# [6] = target: T1, Dual specificity tyrosine-phosphorylation-regulated kinase 2 (Homo sapiens) (UniProt Q92630); assay: Percentage DYRK2 activity remaining in the presence of 0.01uM inhibitor
# T1 sequence (whole entry): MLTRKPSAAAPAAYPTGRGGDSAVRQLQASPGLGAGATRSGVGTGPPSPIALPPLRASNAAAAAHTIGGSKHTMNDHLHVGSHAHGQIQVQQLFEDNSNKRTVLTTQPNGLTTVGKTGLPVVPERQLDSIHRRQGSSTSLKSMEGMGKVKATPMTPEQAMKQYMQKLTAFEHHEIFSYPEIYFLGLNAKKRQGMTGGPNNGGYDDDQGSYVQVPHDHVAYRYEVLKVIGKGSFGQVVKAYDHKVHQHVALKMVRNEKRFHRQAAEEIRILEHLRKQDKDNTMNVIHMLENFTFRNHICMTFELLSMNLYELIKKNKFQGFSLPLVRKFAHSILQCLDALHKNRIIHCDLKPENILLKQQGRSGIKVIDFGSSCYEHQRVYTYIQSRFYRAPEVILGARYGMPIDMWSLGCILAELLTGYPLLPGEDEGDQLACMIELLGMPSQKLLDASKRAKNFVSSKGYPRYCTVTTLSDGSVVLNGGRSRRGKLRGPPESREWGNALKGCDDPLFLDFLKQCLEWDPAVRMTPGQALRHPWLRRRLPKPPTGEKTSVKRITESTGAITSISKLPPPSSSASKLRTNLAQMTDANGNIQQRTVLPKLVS
# [7] = target: Maternal embryonic leucine zipper kinase (Homo sapiens) (UniProt Q14680); assay: Percentage MELK activity remaining in the presence of 0.01uM inhibitor
# [8] = target: Mitogen-activated protein kinase 14 (Homo sapiens, UniProt Q16539); assay: Percentage p38alpha activity remaining in the presence of 0.01uM inhibitor
# [9] = target: Serine/threonine-protein kinase PLK1 (Homo sapiens, UniProt P53350); assay: Percentage PLK1 activity remaining in the presence of 0.01uM inhibitor
# [10] = target: Protein kinase C alpha type (Homo sapiens) (UniProt P17252); assay: Percentage PKCalpha activity remaining in the presence of 0.01uM inhibitor
# [11] = target: Serine/threonine-protein kinase PAK 5 (Homo sapiens) (UniProt Q9P286); assay: Percentage PAK5 activity remaining in the presence of 0.01uM inhibitor
# [12] = target: T2, Serine/threonine-protein kinase Sgk1 (Homo sapiens) (UniProt O00141); assay: Percentage SGK1 activity remaining in the presence of 0.01uM inhibitor
# T2 sequence (whole entry): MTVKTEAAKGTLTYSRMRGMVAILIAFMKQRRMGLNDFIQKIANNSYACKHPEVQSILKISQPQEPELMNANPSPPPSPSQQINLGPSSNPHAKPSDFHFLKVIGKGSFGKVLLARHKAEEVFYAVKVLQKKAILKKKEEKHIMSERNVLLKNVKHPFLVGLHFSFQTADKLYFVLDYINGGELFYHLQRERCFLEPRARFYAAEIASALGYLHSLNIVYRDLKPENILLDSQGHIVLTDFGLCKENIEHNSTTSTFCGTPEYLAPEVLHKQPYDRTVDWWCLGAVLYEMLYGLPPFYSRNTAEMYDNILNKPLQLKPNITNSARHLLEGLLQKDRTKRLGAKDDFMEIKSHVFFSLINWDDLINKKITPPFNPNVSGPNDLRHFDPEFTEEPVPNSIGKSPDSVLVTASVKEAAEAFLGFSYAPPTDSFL
# [13] = target: T3, Aurora kinase C (Homo sapiens) (UniProt Q9UQB9); assay: Percentage Aurora C activity remaining in the presence of 0.01uM inhibitor
# T3 sequence (whole entry): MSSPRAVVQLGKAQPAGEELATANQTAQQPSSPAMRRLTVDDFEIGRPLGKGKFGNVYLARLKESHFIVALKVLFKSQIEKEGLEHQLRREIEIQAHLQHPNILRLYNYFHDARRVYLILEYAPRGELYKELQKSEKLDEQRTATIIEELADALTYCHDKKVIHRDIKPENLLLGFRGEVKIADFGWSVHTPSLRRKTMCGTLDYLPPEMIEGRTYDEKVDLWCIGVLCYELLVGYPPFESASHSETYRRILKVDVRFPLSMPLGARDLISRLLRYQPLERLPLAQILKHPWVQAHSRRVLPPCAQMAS
# [14] = target: Serine/threonine-protein kinase PAK 6 (Homo sapiens) (UniProt Q9NQU5); assay: Percentage PAK6 activity remaining in the presence of 0.01uM inhibitor
# [15] = target: Serine/threonine-protein kinase pim-2 (Homo sapiens, UniProt Q9P1W9); assay: Percentage PIM2 activity remaining in the presence of 0.01uM inhibitor
# Serine/threonine-protein kinase pim-2, sequence (Q9P1W9 whole entry, looked up): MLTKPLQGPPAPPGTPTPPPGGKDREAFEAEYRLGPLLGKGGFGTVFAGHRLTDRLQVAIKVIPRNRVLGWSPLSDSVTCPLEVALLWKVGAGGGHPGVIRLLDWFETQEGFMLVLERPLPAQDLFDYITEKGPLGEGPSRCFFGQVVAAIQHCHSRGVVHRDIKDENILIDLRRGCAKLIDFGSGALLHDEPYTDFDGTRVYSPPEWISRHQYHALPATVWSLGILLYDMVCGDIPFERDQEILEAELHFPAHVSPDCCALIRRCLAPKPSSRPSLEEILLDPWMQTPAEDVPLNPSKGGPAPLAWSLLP
# Maternal embryonic leucine zipper kinase (Homo sapiens), sequence (Q14680 whole entry, looked up): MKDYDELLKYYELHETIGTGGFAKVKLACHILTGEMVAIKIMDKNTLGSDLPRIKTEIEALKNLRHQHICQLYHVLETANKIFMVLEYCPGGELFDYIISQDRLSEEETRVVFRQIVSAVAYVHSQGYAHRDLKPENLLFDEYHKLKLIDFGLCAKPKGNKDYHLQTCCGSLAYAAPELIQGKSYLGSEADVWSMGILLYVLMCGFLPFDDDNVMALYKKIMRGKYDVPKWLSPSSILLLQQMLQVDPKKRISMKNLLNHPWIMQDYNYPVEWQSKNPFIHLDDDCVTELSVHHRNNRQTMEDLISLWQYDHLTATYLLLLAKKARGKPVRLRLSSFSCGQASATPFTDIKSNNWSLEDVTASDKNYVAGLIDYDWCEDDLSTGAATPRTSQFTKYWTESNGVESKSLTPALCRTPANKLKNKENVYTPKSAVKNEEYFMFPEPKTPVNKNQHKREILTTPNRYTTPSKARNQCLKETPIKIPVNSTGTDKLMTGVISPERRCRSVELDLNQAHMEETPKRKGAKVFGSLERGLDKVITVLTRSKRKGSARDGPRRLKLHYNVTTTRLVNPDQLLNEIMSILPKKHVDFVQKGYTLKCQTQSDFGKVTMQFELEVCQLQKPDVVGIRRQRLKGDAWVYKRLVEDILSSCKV
# Serine/threonine-protein kinase PAK 6 (Homo sapiens), sequence (Q9NQU5 whole entry, looked up): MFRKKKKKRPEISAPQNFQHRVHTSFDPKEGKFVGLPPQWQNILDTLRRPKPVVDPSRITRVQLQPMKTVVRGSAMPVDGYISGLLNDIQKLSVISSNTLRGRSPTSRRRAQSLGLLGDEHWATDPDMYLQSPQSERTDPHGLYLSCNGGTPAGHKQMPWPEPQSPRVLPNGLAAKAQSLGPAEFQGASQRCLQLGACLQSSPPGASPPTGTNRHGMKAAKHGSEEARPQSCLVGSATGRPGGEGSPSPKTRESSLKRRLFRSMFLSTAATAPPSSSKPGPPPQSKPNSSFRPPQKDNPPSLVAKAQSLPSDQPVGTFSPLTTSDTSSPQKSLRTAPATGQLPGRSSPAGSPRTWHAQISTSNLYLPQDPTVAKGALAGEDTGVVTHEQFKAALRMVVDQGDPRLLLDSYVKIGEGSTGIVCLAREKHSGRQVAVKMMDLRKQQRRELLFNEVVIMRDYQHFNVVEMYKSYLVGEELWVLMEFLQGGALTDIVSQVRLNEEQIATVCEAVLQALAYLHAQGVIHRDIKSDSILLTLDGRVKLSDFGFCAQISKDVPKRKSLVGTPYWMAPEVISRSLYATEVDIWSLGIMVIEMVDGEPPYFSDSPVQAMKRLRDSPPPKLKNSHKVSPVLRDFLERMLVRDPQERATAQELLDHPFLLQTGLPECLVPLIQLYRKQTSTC
# Ribosomal protein S6 kinase beta-1, sequence (P23443 whole entry, looked up): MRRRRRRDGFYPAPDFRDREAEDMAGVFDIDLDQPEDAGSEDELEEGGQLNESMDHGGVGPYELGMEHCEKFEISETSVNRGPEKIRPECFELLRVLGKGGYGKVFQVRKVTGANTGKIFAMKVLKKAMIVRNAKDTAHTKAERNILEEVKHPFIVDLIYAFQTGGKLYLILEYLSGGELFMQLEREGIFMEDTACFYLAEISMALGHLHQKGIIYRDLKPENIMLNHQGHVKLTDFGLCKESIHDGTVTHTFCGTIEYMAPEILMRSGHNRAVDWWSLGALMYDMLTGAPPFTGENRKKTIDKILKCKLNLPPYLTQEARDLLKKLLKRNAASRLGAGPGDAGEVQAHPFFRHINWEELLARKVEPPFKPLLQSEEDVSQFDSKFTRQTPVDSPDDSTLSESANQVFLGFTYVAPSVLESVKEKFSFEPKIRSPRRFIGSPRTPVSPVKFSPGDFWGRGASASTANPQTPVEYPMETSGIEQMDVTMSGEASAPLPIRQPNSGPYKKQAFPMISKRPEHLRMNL
# Serine/threonine-protein kinase PLK1, sequence (P53350 whole entry): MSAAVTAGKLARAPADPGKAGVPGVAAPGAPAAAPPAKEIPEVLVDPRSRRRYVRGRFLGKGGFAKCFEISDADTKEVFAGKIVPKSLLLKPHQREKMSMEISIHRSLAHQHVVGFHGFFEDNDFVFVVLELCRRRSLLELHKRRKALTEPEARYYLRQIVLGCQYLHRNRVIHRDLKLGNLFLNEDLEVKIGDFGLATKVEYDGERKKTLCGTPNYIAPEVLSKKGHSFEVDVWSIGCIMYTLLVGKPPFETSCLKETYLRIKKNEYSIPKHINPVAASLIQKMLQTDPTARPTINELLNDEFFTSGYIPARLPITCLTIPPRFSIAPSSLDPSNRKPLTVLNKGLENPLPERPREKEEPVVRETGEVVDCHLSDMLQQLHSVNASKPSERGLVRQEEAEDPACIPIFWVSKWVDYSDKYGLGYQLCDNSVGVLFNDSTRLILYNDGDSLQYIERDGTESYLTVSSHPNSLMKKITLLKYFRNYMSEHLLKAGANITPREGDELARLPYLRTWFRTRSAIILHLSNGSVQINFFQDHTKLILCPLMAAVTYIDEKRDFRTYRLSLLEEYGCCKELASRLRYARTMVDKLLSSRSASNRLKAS
# Mitogen-activated protein kinase 11 (Homo sapiens), sequence (Q15759 whole entry): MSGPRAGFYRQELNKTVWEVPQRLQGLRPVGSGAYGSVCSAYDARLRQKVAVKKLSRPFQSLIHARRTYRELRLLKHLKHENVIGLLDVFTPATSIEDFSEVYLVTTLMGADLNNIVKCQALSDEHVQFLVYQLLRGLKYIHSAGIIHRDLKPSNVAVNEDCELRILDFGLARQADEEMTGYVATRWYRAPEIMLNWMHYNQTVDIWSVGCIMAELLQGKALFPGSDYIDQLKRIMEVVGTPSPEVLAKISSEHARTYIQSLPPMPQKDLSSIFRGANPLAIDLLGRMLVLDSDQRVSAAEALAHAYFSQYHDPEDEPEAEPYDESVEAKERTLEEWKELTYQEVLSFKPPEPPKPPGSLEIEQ
# Serine/threonine-protein kinase PAK 5 (Homo sapiens), sequence (Q9P286 whole entry, looked up): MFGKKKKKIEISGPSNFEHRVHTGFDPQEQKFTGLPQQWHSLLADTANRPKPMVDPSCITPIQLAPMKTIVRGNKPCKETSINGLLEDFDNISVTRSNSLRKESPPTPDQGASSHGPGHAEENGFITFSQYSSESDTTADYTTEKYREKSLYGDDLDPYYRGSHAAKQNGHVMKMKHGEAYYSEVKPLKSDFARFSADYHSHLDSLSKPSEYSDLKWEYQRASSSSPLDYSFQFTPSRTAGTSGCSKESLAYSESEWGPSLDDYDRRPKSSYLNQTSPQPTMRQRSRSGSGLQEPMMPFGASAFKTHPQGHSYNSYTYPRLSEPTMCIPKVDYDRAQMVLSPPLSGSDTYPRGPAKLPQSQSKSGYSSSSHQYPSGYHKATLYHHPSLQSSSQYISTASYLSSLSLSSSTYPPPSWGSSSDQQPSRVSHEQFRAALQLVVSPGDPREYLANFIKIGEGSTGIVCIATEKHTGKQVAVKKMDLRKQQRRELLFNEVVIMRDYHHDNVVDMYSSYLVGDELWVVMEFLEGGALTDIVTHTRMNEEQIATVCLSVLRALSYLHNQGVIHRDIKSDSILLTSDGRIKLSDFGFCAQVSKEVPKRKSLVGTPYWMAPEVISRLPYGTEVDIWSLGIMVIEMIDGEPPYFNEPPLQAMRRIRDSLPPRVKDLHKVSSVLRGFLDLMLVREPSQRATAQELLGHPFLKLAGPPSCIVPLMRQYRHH
# Mitogen-activated protein kinase 14, sequence (Q16539 whole entry): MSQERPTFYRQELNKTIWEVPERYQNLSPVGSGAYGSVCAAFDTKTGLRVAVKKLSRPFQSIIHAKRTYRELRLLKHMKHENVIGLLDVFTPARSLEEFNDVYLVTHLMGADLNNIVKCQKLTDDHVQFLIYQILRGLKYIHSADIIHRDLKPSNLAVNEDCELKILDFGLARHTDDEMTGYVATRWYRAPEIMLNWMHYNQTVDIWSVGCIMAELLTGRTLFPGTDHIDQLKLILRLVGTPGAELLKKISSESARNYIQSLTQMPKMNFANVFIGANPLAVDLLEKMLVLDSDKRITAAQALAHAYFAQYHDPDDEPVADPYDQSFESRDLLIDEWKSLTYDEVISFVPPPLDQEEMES
# Serine/threonine-protein kinase Nek6 (Homo sapiens), sequence (Q9HC98 whole entry): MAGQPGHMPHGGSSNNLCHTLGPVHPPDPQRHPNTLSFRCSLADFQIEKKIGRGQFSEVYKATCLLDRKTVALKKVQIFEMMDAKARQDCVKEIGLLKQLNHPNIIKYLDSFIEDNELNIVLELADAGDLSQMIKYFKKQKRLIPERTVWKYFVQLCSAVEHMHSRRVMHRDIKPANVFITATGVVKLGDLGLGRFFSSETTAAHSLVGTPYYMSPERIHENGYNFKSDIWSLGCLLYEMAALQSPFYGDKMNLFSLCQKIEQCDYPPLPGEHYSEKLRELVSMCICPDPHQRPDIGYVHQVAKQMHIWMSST
Activity ([13]; filed as antagonist),Compound,Activity [1],Activity [2],Activity [3],Activity [4],Activity [5],Activity [6],Activity [7],Activity [8],Activity [9],Activity [10],Activity [11],Activity [12],Activity [14],Activity [15],Activity ([3]; filed as antagonist),Activity [13],Activity ([10]; filed as antagonist),Activity ([11]; filed as antagonist),Activity ([14]; filed as antagonist)
27%,O=C(NCCCNc1nc(Nc2cccc(NC(=O)N3CCCC3)c2)ncc1I)c1cccs1,96%,94%,94%,100%,93%,105%,95%,86%,95%,105%,97%,87%,92%,108%,,,,,
,Cc1n[nH]c2ccc(-c3cncc(OC[C@@H](N)Cc4c[nH]c5ccccc45)c3)cc12,95%,114%,,88%,96%,79%,96%,131%,89%,73%,104%,78%,87%,59%,10%,100%,,,
,CN[C@@H]1C[C@H]2O[C@@](C)([C@@H]1OC)n1c3ccccc3c3c4c(c5c6ccccc6n2c5c31)C(=O)N[C@H]4O (stereo in doubt),104%,105%,90%,96%,92%,92%,53%,105%,76%,,,83%,,73%,,71%,6%,36%,35%
